Measured values taken from US4663347A, “Benzofuran 2-carboxylic acid esters useful as inhibitors of leukotriene biosynthesis” (Merck Frosst Canada, Inc., priority 1985, dated 1987).
In brackets after ≈: the same amount, converted by molar mass.

Legend:
[1] = test system: leukotriene biosynthesis (mouse peritoneal macrophages); test: Mouse Macrophage Assay (leukotriene inhibition); format: cell-based; conditions: zymosan stimulated, read-out: LEUKOTRIENE INHIBITION MACROPHAGE ED50
Method: Representative compounds of Formula I have been tested using the following assay to determine their mammalian leukotriene biosynthesis inhibiting activity.
Mouse peritoneal macrophages were treated sequentially with arachidonic acid (labelled with tritium); the compound being evaluated as an inhibitor, and a stimulator (zymosan). Metabolites derived from arachidonic acid (PGE2, 6-keto PG-F1α and Leukotriene C4) were separated from the incubation medium by extraction and chromatography, and then quantitated by determining the amount of radioactivity (cpm) associated with each of them. […] (This protocol is identical to that described in the reference except that the radioactivity herein associated with the LTC4 was determined by counting an aliquot of the final aqueous solution directly rather than chromatographying it first).
Reference: Humes, J. L. et al., J. Biol. Chem. 257, 1591-4 (1982).
The following table (Table II) reflects the leukotriene biosynthesis inhibiting ability of selected compounds of Formula I.

[2] = test system: PAF-induced hyperalgesia (female Sprague-Dawley rats); test: PAF-Induced Hyperalgesia Assay; format: in vivo, rat; conditions: p.o.
Method: PAF-Induced Hyperalgesia Assay
Female Sprague-Dawley rats, 35-40 g were fasted overnight. Platelet activating factor, PAF, (L-lecithin B-acetyl O-alkyl) 1 μg/0.1 ml was given by subplantar injection in the rat paw. The compounds to be evaluated were homogenized in Aqueous Vehicle (0.9% benzyl alcohol, 0.5% Tween 80 and 0.4% methylcellulose) and administered orally in a volume of 0.1 ml, 30 minutes prior to PAF.
Animals were tested 1, 2, 3 and 4 hours after PAF administration. The vocalization threshold, defined as the pressure (mmHg) needed to evoke a squeak response, was recorded for both the injected and contralateral paw. No animal was subjected to pressure greater than 60 mmHg. Hyperalgesia is defined as a decrease in vocalization threshold as compared to a normal paw. Percent inhibition of hyperalgesia was calculated as the proportion of animals with vocalization thresholds greater than 200% of controls.

asthmatic rats = test: Asthmatic Rat Assay (duration of antigen-induced dyspnea); format: in vivo
Text: Rats were obtained from an inbred line of asthmatic rats. Both female and male rats from 200 to 300 g were used.
Egg albumin (EA), grade V, crystallized and lyophilized, was obtained from Sigma Chemical Co., St. Louis, Bordetella pertussis vaccine, containing 30×10^9 killed bacteria per ml was obtained from the Institut Armand-Frappier, Laval des Rapides, Quebec. Aluminum hydroxide was obtained from the Regis Chemical Company, Chicago.
The challenge and subsequent respiratory recordings were carried out in a clear plastic box with internal dimensions 10×6×4 inches. The top of the box was removable; in use, it was held firmly in place by four clamps and an airtight seal was maintained by a soft rubber gasket. […] A Fleisch No. 0000 pneumotachograph was inserted into one end of the box and coupled to a Grass volumetric pressure transducer (PT5-A) which was then connected to a Beckman Type R Dynograph through appropriate couplers. While aerosolizing the antigen, the outlets were open and the pneumatachograph was isolated from the chamber. The outlets were closed and the pneumotachograph and the chamber were connected during the recording of the respiratory patterns. […]
Rats were sensitized by injecting (s.c.) 1 ml of a suspension containing 1 mg EA and 200 mg aluminum hydroxide in saline. […] Rats were then exposed to an aerosol of 3% EA in saline for exactly 1 minute, then their respiratory profiles were recorded for a further 25-30 minutes. The duration of continuous dyspnea was measured from the respiratory recordings.
Compounds were generally administered either intraperitoneally 1 hour prior to challenge or orally 11/2 hours prior to challenge. […] Their activity was determined in terms of their ability to decrease the duration of symptoms of dyspnea in comparison with a group of vehicle-treated controls. Usually, a compound was evaluated at a series of doses and an ED50 was determined. […]

IC50 [1] | SMILES | further results
0.2 µg/mL (≈ 0.647 µM) | CC(=O)Oc1cccc2oc(C(=O)Nc3ccccc3)c(C)c12 | –
0.2 µg/mL (≈ 0.582 µM) | CC(=O)Oc1cccc2oc(C(=O)Nc3ccc(Cl)cc3)c(C)c12 | –
5 µg/mL (≈ 26 µM) | Cc1c(C(=O)O)oc2cccc(O)c12 | –
0.2 µg/mL (≈ 0.908 µM) | CCOC(=O)c1oc2cccc(O)c2c1C [drawing 82] | –
1 µg/mL (≈ 4.03 µM) | Cc1c(C(=O)OC(C)(C)C)oc2cccc(O)c12 [drawing 83] | –
5 µg/mL (≈ 19.1 µM) | CCOC(=O)c1oc2cccc(OC(C)=O)c2c1C [drawing 86] | –
1 to 5 µg/mL (≈ 3.74 to 18.7 µM) | Cc1c(C(=O)Nc2ccccc2)oc2cccc(O)c12 [drawing 90] | –
1 µg/mL (≈ 3.54 µM) | Cc1c(C(=O)NNc2ccccc2)oc2cccc(O)c12 [drawing 91] | –
1 µg/mL (≈ 3.16 µM) | Cc1c(C(=O)NNc2ccc(Cl)cc2)oc2cccc(O)c12 [drawing 92] | –

The remaining lines, values behind:

SMILES | IC50 [1] | further results
CCOC(=O)c1oc2cccc(OC(=S)N(C)C)c2c1C | 2.5 to 5 µg/mL (≈ 8.13 to 16.3 µM) | –
CCOC(=O)c1oc2cccc(SC(=O)N(C)C)c2c1C | 5 µg/mL (≈ 16.3 µM) | –
CCOC(=O)c1oc2cccc(O)c2c1C [drawing 93] | – | PAF HYPERALGESIA (percent inhibition of hyperalgesia) ([2]; 10 mg/kg): 10%; ASTHMATIC RAT (% inhibition of duration of dyspnea) (asthmatic rats; 5 mg/kg, i.v.): 38%
Cc1c(C(=O)OC(C)(C)C)oc2cccc(O)c12 [drawing 94] | – | PAF HYPERALGESIA (percent inhibition of hyperalgesia) ([2]; 10 mg/kg): 60%; ASTHMATIC RAT (% inhibition of duration of dyspnea) (asthmatic rats; 15 mg/kg, p.o.): 41%
CCOC(=O)c1oc2cccc(OC(C)=O)c2c1C [drawing 95] | – | PAF HYPERALGESIA (percent inhibition of hyperalgesia) ([2]; 10 mg/kg): 50%; ASTHMATIC RAT (% inhibition of duration of dyspnea) (asthmatic rats; 5 mg/kg, i.v.): 63%
Cc1c(C(=O)Nc2ccccc2)oc2cccc(O)c12 [drawing 96] | – | PAF HYPERALGESIA (percent inhibition of hyperalgesia) ([2]; 1.03 mg/kg): 60%
Cc1c(C(=O)NNc2ccccc2)oc2cccc(O)c12 [drawing 97] | – | PAF HYPERALGESIA (percent inhibition of hyperalgesia) ([2]; 20 mg/kg): 50%
Cc1c(C(=O)NNc2ccc(Cl)cc2)oc2cccc(O)c12 [drawing 98] | – | PAF HYPERALGESIA (percent inhibition of hyperalgesia) ([2]; 1 mg/kg): 60%
